Measured values: US20090054428A1, “NOVEL PYRIMIDINE DERIVATIVES 965” (ASTRAZENECA AB, priority 2007, published 2009)
pIC50: −log10 of the molar value. Read-outs that look alike come from different tables or passages of the source.

Experiments:
recombinant EphB4 [1] = biological target: T1, recombinant EphB4 (Homo sapiens, UniProt P54760); assay: biochemical
T1 sequence (P54760 563-987): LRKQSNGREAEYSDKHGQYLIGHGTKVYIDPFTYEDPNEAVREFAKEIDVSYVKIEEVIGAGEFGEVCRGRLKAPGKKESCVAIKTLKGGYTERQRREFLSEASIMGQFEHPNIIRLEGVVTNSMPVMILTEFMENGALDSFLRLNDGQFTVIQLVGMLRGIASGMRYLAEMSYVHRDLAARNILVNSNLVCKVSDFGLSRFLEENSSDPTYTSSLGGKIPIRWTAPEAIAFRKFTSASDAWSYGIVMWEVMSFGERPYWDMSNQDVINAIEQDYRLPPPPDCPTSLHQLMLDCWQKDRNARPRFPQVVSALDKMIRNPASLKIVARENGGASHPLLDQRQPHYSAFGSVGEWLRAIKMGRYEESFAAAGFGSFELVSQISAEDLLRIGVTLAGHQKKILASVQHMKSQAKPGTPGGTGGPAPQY
Text: (§1) This assay detects inhibitors of EphB4-mediated phosphorylation of a polypeptide substrate using Alphascreen™ luminescence detection technology. […] The reaction was stopped by addition of EDTA, together with streptavidin-coated donor beads which bind the biotin-substrate containing any phosphorylated tyrosine residues. Anti-phosphotyrosine antibodies present on acceptor beads bind to phosphorylated substrate, thus bringing the donor & acceptor beads into close proximity. Subsequent excitation of the donor beads at 680 nm generated singlet oxygen species that interact with a chemiluminescer on the acceptor beads, leading to light emission at 520-620 nm. The signal intensity is directly proportional to the level of substrate phosphorylation and thus inhibition is measured by a decrease in signal.
(§2) To ensure that each well contained a total of 120 nl DMSO the wells were all backfilled as required. […] The test range of compounds was 100× the required final concentration.
(§3) Assay plates were then incubated at room temperature for 1 hour.
(§4) For assays using compounds prepared via acoustic dispensing, the assay mix was adjusted such that the final assay volume of 12 ul contained the same concentration of reagent as 10 ul of assay mix used when aqueous compounds were tested.
(§5) The plates were sealed under natural lighting conditions, wrapped in aluminium foil and incubated in the dark for a further 20 hours.
(§6) The resulting assay signal was determined on the Perkin Elmer EnVision plate reader. The minimum value was subtracted from all values, and the signal plotted against compound concentration to generate IC50 data. The method used to generate the compound dilutions was recorded with the IC50 value in the database.

EphB4 = biological target: T2, EphB4 (Homo sapiens, UniProt P54760); assay: In vitro EphB4 cell assay (EphB4 phosphorylation ELISA in EphB4-CHO cells); format: cell-based
T2 construct: to generate full-length EphB4 containing a Myc-His tag at the C-terminus; expressed in transfected cells
T2 sequence (P54760 16-987): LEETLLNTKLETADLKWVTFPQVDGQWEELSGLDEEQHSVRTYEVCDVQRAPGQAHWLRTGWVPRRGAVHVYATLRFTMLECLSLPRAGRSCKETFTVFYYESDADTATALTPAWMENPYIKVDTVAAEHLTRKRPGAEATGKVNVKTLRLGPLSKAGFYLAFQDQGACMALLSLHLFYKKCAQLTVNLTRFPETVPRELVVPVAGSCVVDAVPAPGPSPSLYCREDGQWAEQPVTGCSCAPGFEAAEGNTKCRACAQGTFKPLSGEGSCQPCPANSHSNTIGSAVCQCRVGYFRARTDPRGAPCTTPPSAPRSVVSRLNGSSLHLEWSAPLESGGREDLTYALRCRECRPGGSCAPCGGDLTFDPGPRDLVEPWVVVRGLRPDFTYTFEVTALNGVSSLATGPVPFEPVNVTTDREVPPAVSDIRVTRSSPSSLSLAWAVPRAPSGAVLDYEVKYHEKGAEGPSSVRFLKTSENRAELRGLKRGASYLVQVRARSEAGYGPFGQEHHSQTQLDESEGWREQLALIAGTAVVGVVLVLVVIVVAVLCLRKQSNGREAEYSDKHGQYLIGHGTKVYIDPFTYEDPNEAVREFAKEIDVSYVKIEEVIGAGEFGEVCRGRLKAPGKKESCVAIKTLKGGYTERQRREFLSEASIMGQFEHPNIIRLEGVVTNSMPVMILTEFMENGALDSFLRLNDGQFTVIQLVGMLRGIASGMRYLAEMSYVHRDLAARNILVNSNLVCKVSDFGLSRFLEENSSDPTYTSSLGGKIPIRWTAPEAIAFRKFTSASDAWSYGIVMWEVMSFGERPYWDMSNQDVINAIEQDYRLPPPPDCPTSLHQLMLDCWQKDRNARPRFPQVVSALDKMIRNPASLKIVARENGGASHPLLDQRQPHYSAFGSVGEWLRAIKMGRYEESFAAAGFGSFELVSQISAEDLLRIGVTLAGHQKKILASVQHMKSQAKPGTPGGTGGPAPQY
Experimental: The assay identifies inhibitors of cellular EphB4 by measuring a decrease in phosphorylation of EphB4 following treatment of cells with compound. The endpoint assay used a sandwich ELISA to detect EphB4 phosphorylation status. Briefly, Myc-tagged EphB4 from treated cell lysate was captured on the ELISA plate via an anti-c-Myc antibody. The phosphorylation status of captured EphB4 was then measured using a generic phosphotyrosine antibody conjugated to HRP via a colourimetric output catalysed by HRP, with level of EphB4 phosphorylation directly proportional to the colour intensity. Absorbance was measured spectrophotometrically at 450 nm.
Full length human EphB4 (Swiss-Prot Acc. No. P54760) was cloned using standard techniques from cDNA prepared from HUVEC using RT-PCR. The cDNA fragment was then sub-cloned into a pcDNA3.1 expression vector containing a Myc-His epitope tag to generate full-length EphB4 containing a Myc-His tag at the C-terminus (Invitrogen Ltd. Paisley, UK). […] CHO-K1 cells were engineered to stably express the EphB4-Myc-His construct using standard stable transfection techniques, to generate cells hereafter termed EphB4-CHO. […]
Plates were washed twice with PBS/0.05% Tween-20 and incubated with 100 μl/well cell lysate overnight at 4° C. […] The absorbances were determined at 450 nm using the Tecan SpectraFluor Plus. […]

recombinant EphB4 [2] = biological target: T1, recombinant EphB4; settings: read-out: EphB4 enzyme assay Mean IC50 value; Method of compound preparation: Genesis (aqueous compound preparation); * = tested once only
Text: as §1, §2, §3, §4, §5, §6

[3] = EphB4 enzyme assay Mean IC50 value, Method of compound preparation: Genesis (aqueous compound preparation), * = tested once only
[4] = EphB4 enzyme assay Mean IC50 value, Method of compound preparation: Echo (acoustic dispensing), * = tested once only

| Compound | pIC50 (recombinant EphB4 [1]; [3]) | pIC50 (recombinant EphB4 [1]; [4]) | also measured |
| --- | --- | --- | --- |
| CN(c1cccc(Cl)n1)c1ccnc(Nc2cc(N3CCOCC3)cc(N3CCOCC3)c2)n1 [Example 4, N′-(6-chloropyridin-2-yl)-N-(3,5-dimorpholin-4-ylphenyl)-N′-methyl-pyrimidine-2,4-diamine] | 6.21 |  |  |
| Cc1cccc(N(C)c2ccnc(Nc3cc(N4CCOCC4)cc(N4CCOCC4)c3)n2)n1 [Example 11, N-[3,5-di(morpholin-4-yl)phenyl]-N′-methyl-N′-(6-methylpyridin-2-yl)pyrimidine-2,4-diamine] | < 4.84 | 6.68 |  |
| Cc1ccc(N(C)c2ccnc(Nc3cc(N4CCOCC4)cc(N4CCOCC4)c3)n2)nc1 [Example 12, N-[3,5-di(morpholin-4-yl)phenyl]-N′-methyl-N′-(5-methylpyridin-2-yl)pyrimidine-2,4-diamine] | 6.60 | 6.80 |  |
| CN(c1cc(Cl)ccn1)c1ccnc(Nc2cc(N3CCOCC3)cc(N3CCOCC3)c2)n1 [Example 2a, N′-(4-chloropyridin-2-yl)-N-(3,5-dimorpholin-4-ylphenyl)-N′-methyl-pyrimidine-2,4-diamine] |  |  | pIC50 (EphB4): 6.71; pIC50 (recombinant EphB4 [1]; IC50 in assay A, method of compound preparation not stated): 6.39 |
| Cc1cnc(C)c(N(C)c2ccnc(Nc3cc(N4CCOCC4)cc(N4CCOCC4)c3)n2)c1 [Example 7c, N′-(2,5-dimethylpyridin-3-yl)-N-(3,5-dimorpholin-4-ylphenyl)-N′-methyl-pyrimidine-2,4-diamine] | 6.42 |  |  |
| Cc1ccc(CO)nc1N(C)c1ccnc(Nc2cc(N3CCOCC3)cc(N3CCOCC3)c2)n1 [Example 10, (6-((2-(3,5-dimorpholinophenylamino)pyrimidin-4-yl)(methyl)amino)-5-methylpyridin-2-yl)methanol] |  | 6.85 |  |
| Cc1ncc(CO)cc1N(C)c1ccnc(Nc2cc(N3CCOCC3)cc(N3CCOCC3)c2)n1 [Example 13, [5-[[2-[[3,5-di(morpholin-4-yl)phenyl]amino]pyrimidin-4-yl]-methylamino]-6-methylpyridin-3-yl]methanol] |  | 7.17 |  |
| COc1cnc(Cl)c(N(C)c2ccnc(Nc3cc(N4CCOCC4)cc(N4CCOCC4)c3)n2)c1 [Example 9, N′-(2-chloro-5-methoxy-pyridin-3-yl)-N-(3,5-dimorpholin-4-ylphenyl)-N′-methyl-pyrimidine-2,4-diamine] |  | 7.97 |  |
| COc1cnc(C)c(N(C)c2ccnc(Nc3cc(N4CCOCC4)cc(N4CCOCC4)c3)n2)c1 [Example 7d, N-(3,5-dimorpholin-4-ylphenyl)-N′-(5-methoxy-2-methyl-pyridin-3-yl)-N′-methyl-pyrimidine-2,4-diamine] |  | 8.36 |  |
| Cc1cc(N(C)c2ccnc(Nc3cc(N4CCOCC4)cc(N4CCOCC4)c3)n2)cnc1Cl [Example 8b, N′-(6-chloro-5-methyl-pyridin-3-yl)-N-(3,5-dimorpholin-4-ylphenyl)-N′-methyl-pyrimidine-2,4-diamine] | 6.78 |  |  |
| CN(c1ccc(Cl)nc1)c1ccnc(Nc2cc(N3CCOCC3)cc(N3CCOCC3)c2)n1 [Example 6, N4-(6-chloropyridin-3-yl)-N2-(3,5-dimorpholinophenyl)-N4-methylpyrimidine-2,4-diamine] | 6.70 |  |  |
| N′-(4-chloropyridin-4-yl)-N-(3,5-dimorpholin-4-ylphenyl)-N′-methyl-pyrimidine-2,4-diamine [Example 2b] |  |  | pIC50 (recombinant EphB4 [2]): 6.68 |
| CN(c1cncc(Cl)c1)c1ccnc(Nc2cc(N3CCOCC3)cc(N3CCOCC3)c2)n1 [Example 3, N′-(5-chloropyridin-3-yl)-N-(3,5-dimorpholin-4-ylphenyl)-N′-methyl-pyrimidine-2,4-diamine] | 7.31 | 7.93 |  |
| Cc1ccc(N(C)c2ccnc(Nc3cc(N4CCOCC4)cc(N4CCOCC4)c3)n2)cn1 [Example 7a, N-(3,5-dimorpholin-4-ylphenyl)-N′-methyl-N′-(6-methylpyridin-yl)pyrimidine-2,4-diamine] | 6.94 |  |  |
| COc1cc(N(C)c2ccnc(Nc3cc(N4CCOCC4)cc(N4CCOCC4)c3)n2)cnc1Cl [Example 8a, N′-(6-chloro-5-methoxy-pyridin-3-yl)-N-(3,5-dimorpholin-4-ylphenyl)-N′-methyl-pyrimidine-2,4-diamine] | 6.97 |  |  |
